# Source: patent publication US9408387B2, “Safening 6-amino-2-(substituted phenyl)-5-substituted-4-pyrimidinecarboxylate herbicide injury on cereal crops” (Dow AgroSciences LLC, priority 2009, dated 2016)
# Tests used:
# Format in all cases: in vivo
# Conditions in all cases: CQC-M 0
# [1] = system: spring barley (Hordeum vulgare L; HORVS); experiment: Postemergence herbicidal safening in cereal crops, greenhouse, visual injury: spring barley
# Description: (§1) Evaluation of Postemergence Herbicidal Safening in Cereal Crops
# (§2) Seeds of the desired test plant species were planted in Sun Gro MetroMix® 306 planting mixture, which typically has a pH of 6.0 to 6.8 and an organic matter content of about 30 percent, in plastic pots with a surface area of 103.2 square centimeters (cm^2). When required to ensure good germination and healthy plants, a fungicide treatment and/or other chemical or physical treatment was applied. The plants were grown for 7-36 days (d) in a greenhouse with an approximate 14-hour (h) photoperiod which was maintained at about 18° C. during the day and 17° C. during the night. Nutrients and water were added on a regular basis and supplemental lighting was provided with overhead metal halide 1000-Watt lamps as necessary. The plants were employed for testing when they reached the second or third true leaf stage.
# (§3) Treatments consisted of the acids or esters of compounds 1-10 and cloquintocet-mexyl (CQC-M), fenchlorazole-ethyl, mefenpyr-diethyl alone and in combination. Weighed amounts of acid or methyl esters of the compounds of formula (I) were dissolved in a volume of 97:3 v/v acetone/dimethylsulfoxide (DMSO) to obtain concentrated solutions. […] The concentrated solutions of the test compound were diluted with the addition of an aqueous mixture containing acetone, water, isopropyl alcohol, DMSO, Agri-Dex crop oil concentrate, and Triton® X-77 surfactant in a 64.7:26.0:6.7:2.0:0.7:0.01 v/v ratio. Test compounds were diluted to the appropriate application rate with a dilution solution which was prepared by mixing the appropriate volume of 97:3 v/v acetone/DMSO and the appropriate volume of an aqueous mixture containing acetone, water, isopropyl alcohol, DMSO, Agri-Dex crop oil concentrate, and Triton® X-77 surfactant in a 64.7:26.0:6.7:2.0:0.7:0.01 v/v ratio. Compound requirements are based upon a 12 mL application volume at a rate of 187 liters per hectare (L/ha). The concentrated solutions of the safener were prepared following the same procedure. Weighed amounts of safener were dissolved in a volume of 97:3 v/v acetone/DMSO to obtain concentrated safener solutions.
# (§4) Spray solutions of the herbicide safener and test compound mixtures were prepared by adding the concentrated solutions to the appropriate amount of dilution solution to form 12 mL spray solution with active ingredients in combinations.
# (§5) Formulated compounds were applied to the plant material with an overhead Mandel track sprayer equipped with 8002E nozzles calibrated to deliver 187 L/ha over an application area of 0.503 square meters (m^2) at a spray height of 18 inches (43 centimeters (cm)) above average plant canopy. Control plants were sprayed in the same manner with the solvent blank.
# (§6) The treated plants and control plants were placed in a greenhouse as described above and watered by sub-irrigation to prevent wash-off of the test compounds. After 20-22 d, the condition of the test plants as compared with that of the control plants was determined visually and scored on a scale of 0 to 100 percent where 0 corresponds to no injury and 100 corresponds to complete kill.
# (§7) Colby's equation was used to determine the herbicidal effects expected from the mixtures (Colby, S. R. Calculation of the synergistic and antagonistic response of herbicide combinations. Weeds 1967, 15, 20-22.).
# (§8) The following equation was used to calculate the expected activity of mixtures containing two active ingredients, A and B: Expected=A+B−(A×B/100)
# (§9) A=observed efficacy of active ingredient A at the same concentration as used in the mixture.
# (§10) B=observed efficacy of active ingredient B at the same concentration as used in the mixture.
# [2] = system: kochia (Kochia scoparia L; KCHSC); experiment: Postemergence herbicidal activity, greenhouse, visual injury: kochia
# Description: as §1, §2, §3, §4, §5, §6, §7, §8, §9, §10
# [3] = system: purple deadnettle (Lamium purpureum L; LAMPU); experiment: Postemergence herbicidal activity, greenhouse, visual injury: purple deadnettle
# Description: as §1, §2, §3, §4, §5, §6, §7, §8, §9, §10
# SASKR = experiment: Postemergence herbicidal activity, greenhouse, visual injury: SASKR
# Description: as §1, §2, §3, §4, §5, §6, §7, §8, §9, §10
# [4] = system: wild mustard (Sinapis arvensis L.; SINAR); experiment: Postemergence herbicidal activity, greenhouse, visual injury: SINAR
# [5] = system: corn poppy (Papaver rhoeas L; PAPRH); experiment: Postemergence herbicidal activity, greenhouse, visual injury: corn poppy
# Description: as §1, §2, §3, §4, §5, §6, §7, §8, §9, §10
# [6] = system: spring wheat (Triticum aestivum L; TRZAS); experiment: Postemergence herbicidal safening in cereal crops, greenhouse, visual injury: spring wheat
# Description: as §1, §2, §3, §4, §5, §6, §7, §8, §9, §10
# [7] = system: bird's-eye speedwell (Veronica persica L; VERPE); experiment: Postemergence herbicidal activity, greenhouse, visual injury: bird's-eye speedwell
# Description: as §1, §2, §3, §4, §5, §6, §7, §8, §9, §10
# [8] = system: wild pansy (Viola tricolor; VIOTR); experiment: Postemergence herbicidal activity, greenhouse, visual injury: VIOTR
# MATCH = experiment: Postemergence herbicidal activity, greenhouse, visual injury: MATCH
# Description: as §1, §2, §3, §4, §5, §6, §7, §8, §9, §10
# CIRAR = experiment: Postemergence herbicidal activity, greenhouse, visual injury: CIRAR
# Description: as §1, §2, §3, §4, §5, §6, §7, §8, §9, §10
smiles,measurement,setting,value
"COc1c(N)nc(-c2ccc(Cl)c(F)c2F)nc1C(=O)O [Compound 10, 6-amino-2-(4-chloro-2,3-difluorophenyl)-5-methoxypyrimidine-4-carboxylic acid]","HORVS Ob (Observed values, % control)",[1]; Compound 10 8.75 g ae/ha,25%
same,"HORVS Ob (Observed values, % control)",[1]; Compound 10 17.5 g ae/ha,30%
same,"HORVS Ob (Observed values, % control)",[1]; Compound 10 35 g ae/ha,60%
same,"HORVS Ob (Observed values, % control)",[1]; Compound 10 70 g ae/ha,75%
same,"HORVS Ob (Observed values, % control)",[1]; Compound 10 140 g ae/ha,85%
same,"KCHSC Ob (Observed values, % control)",[2]; Compound 10 8.75 g ae/ha,98%
same,"KCHSC Ob (Observed values, % control)",[2]; Compound 10 17.5 g ae/ha,98%
same,"KCHSC Ob (Observed values, % control)",[2]; Compound 10 35 g ae/ha,100%
same,"KCHSC Ob (Observed values, % control)",[2]; Compound 10 70 g ae/ha,100%
same,"KCHSC Ob (Observed values, % control)",[2]; Compound 10 140 g ae/ha,100%
same,"LAMPU Ob (Observed values, % control)",[3]; Compound 10 8.75 g ae/ha,95%
same,"LAMPU Ob (Observed values, % control)",[3]; Compound 10 17.5 g ae/ha,95%
same,"LAMPU Ob (Observed values, % control)",[3]; Compound 10 35 g ae/ha,100%
same,"LAMPU Ob (Observed values, % control)",[3]; Compound 10 70 g ae/ha,100%
same,"LAMPU Ob (Observed values, % control)",[3]; Compound 10 140 g ae/ha,100%
same,"SASKR Ob (Observed values, % control)",SASKR; Compound 10 8.75 g ae/ha,85%
same,"SASKR Ob (Observed values, % control)",SASKR; Compound 10 17.5 g ae/ha,87%
same,"SASKR Ob (Observed values, % control)",SASKR; Compound 10 35 g ae/ha,90%
same,"SASKR Ob (Observed values, % control)",SASKR; Compound 10 70 g ae/ha,93%
same,"SASKR Ob (Observed values, % control)",SASKR; Compound 10 140 g ae/ha,95%
same,"SINAR Ob (Observed values, % control)",[4]; Compound 10 8.75 g ae/ha,100%
same,"SINAR Ob (Observed values, % control)",[4]; Compound 10 17.5 g ae/ha,100%
same,"SINAR Ob (Observed values, % control)",[4]; Compound 10 35 g ae/ha,100%
same,"SINAR Ob (Observed values, % control)",[4]; Compound 10 70 g ae/ha,100%
same,"SINAR Ob (Observed values, % control)",[4]; Compound 10 140 g ae/ha,100%
same,"PAPRH Ob (Observed values, % control)",[5]; Compound 10 8.75 g ae/ha,100%
same,"PAPRH Ob (Observed values, % control)",[5]; Compound 10 17.5 g ae/ha,100%
same,"PAPRH Ob (Observed values, % control)",[5]; Compound 10 35 g ae/ha,100%
same,"PAPRH Ob (Observed values, % control)",[5]; Compound 10 70 g ae/ha,100%
same,"PAPRH Ob (Observed values, % control)",[5]; Compound 10 140 g ae/ha,100%
same,"TRZAS Ob (Observed values, % control)",[6]; Compound 10 8.75 g ae/ha,45%
same,"TRZAS Ob (Observed values, % control)",[6]; Compound 10 17.5 g ae/ha,55%
same,"TRZAS Ob (Observed values, % control)",[6]; Compound 10 35 g ae/ha,65%
same,"TRZAS Ob (Observed values, % control)",[6]; Compound 10 70 g ae/ha,70%
same,"TRZAS Ob (Observed values, % control)",[6]; Compound 10 140 g ae/ha,75%
same,"VERPE Ob (Observed values, % control)",[7]; Compound 10 8.75 g ae/ha,93%
same,"VERPE Ob (Observed values, % control)",[7]; Compound 10 17.5 g ae/ha,97%
same,"VERPE Ob (Observed values, % control)",[7]; Compound 10 35 g ae/ha,100%
same,"VERPE Ob (Observed values, % control)",[7]; Compound 10 70 g ae/ha,100%
same,"VERPE Ob (Observed values, % control)",[7]; Compound 10 140 g ae/ha,100%
same,"VIOTR Ob (Observed values, % control)",[8]; Compound 10 8.75 g ae/ha,70%
same,"VIOTR Ob (Observed values, % control)",[8]; Compound 10 17.5 g ae/ha,75%
same,"VIOTR Ob (Observed values, % control)",[8]; Compound 10 35 g ae/ha,85%
same,"VIOTR Ob (Observed values, % control)",[8]; Compound 10 70 g ae/ha,93%
same,"VIOTR Ob (Observed values, % control)",[8]; Compound 10 140 g ae/ha,97%
same,"MATCH Ob (Observed values, % control)",MATCH; Compound 10 8.75 g ae/ha,70%
same,"MATCH Ob (Observed values, % control)",MATCH; Compound 10 17.5 g ae/ha,90%
same,"MATCH Ob (Observed values, % control)",MATCH; Compound 10 35 g ae/ha,93%
same,"MATCH Ob (Observed values, % control)",MATCH; Compound 10 70 g ae/ha,95%
same,"MATCH Ob (Observed values, % control)",MATCH; Compound 10 140 g ae/ha,100%
same,"CIRAR Ob (Observed values, % control)",CIRAR; Compound 10 8.75 g ae/ha,80%
same,"CIRAR Ob (Observed values, % control)",CIRAR; Compound 10 17.5 g ae/ha,85%
same,"CIRAR Ob (Observed values, % control)",CIRAR; Compound 10 35 g ae/ha,90%
same,"CIRAR Ob (Observed values, % control)",CIRAR; Compound 10 70 g ae/ha,90%
same,"CIRAR Ob (Observed values, % control)",CIRAR; Compound 10 140 g ae/ha,100%
